Six compounds from ChEMBL document CHEMBL5532735, “Novel Furopyridine and Furopyrimidine Compounds as PI4K Inhibitors for Treating Malaria and Viral Infection” (ACS Med Chem Lett, 2024) can be followed below.

The subject of this assay is Plasmodium falciparum. Briefly: Antimalarial activity against Plasmodium falciparum assessed as inhibition of parasite growth by [3H]hypoxanthine incorporation assay. Format: functional, organism-based.

Structures are written as SMILES.

In the case of `CS(=O)(=O)c1ccc(-c2cc3nccc(-c4cccc(C5(O)CCC5)c4)c3o2)cc1`, the IC50 is less than 10 nM. Under `CS(=O)(=O)c1ccc(-c2cc3nccc(-c4cccc(C5(O)CCC(F)(F)CC5)c4)c3o2)cn1` stands less than 10 nM.

`CC(C)(O)c1cccc(-c2ncnc3cc(-c4ccc(S(C)(=N)=O)cc4)oc23)c1F` (stereo unspecified): the IC50 is less than 10 nM.

With `CC(C)(O)c1cccc(-c2ncnc3cc(-c4ccc(S(C)(=O)=O)cc4)oc23)c1F`, the IC50 was less than 10 nM. With `CC(C)(O)c1cc(-c2ccnc3cc(-c4ccc(S(C)(=O)=O)cc4)oc23)ccn1`, the IC50 is less than 10 nM.

For `Cn1cc(-c2cc3nccc(-c4cccc(S(C)(=O)=O)c4)c3o2)ccc1=O`, the IC50 was less than 10 nM.
